In patent US11918563B1, “Methods and compositions for treatment of epileptic disorders” (Ovid Therapeutics Inc., priority 2016, dated 2024):
Where two headings read alike, the source gives them in different places. Marks after values point to notes of the source that are not given here.

What was measured:
[1] = for Fe: geometric mean N=10
[2] = three-month efficacy study, insomnia; cited from earlier work
[3] = system: Li-Pilo model of status epilepticus; assay: Ability to block benzodiazepine-resistant status epilepticus in the Li-Pilo model; type: in vivo, male Sprague Dawley rats
Experimental: At the conclusion of the behavioral observation period, a 3 mL injection of lactated Ringer's solution is administered to all surviving rats to replace any SE-induced fluid loss.
All animals in the study are retained for 24 hours following completion of the study for assessment of weight change.
Additional measures of effects, e.g., motor impairment, weight change post-SE, or survival from SE for 24 hrs are also recorded during the studies for all treatment conditions.

[4] = patients with a history of drug abuse; cited from earlier work
[5] = human, in vivo, po
[6] = 0.5 mg/kg i.p. 30 min after first convulsive seizure, rats
[7] = 2 mg/kg i.p. 30 min after first convulsive seizure, rats
[8] = 5 mg/kg i.p. 30 min after first convulsive seizure, rats
[9] = 10 mg/kg i.p. 30 min after first convulsive seizure, rats
[10] = 20 mg/kg i.p. 30 min after first convulsive seizure, rats

| Compound | Residual effect on primary endpoints Choice Reaction Time and Critical Flicker Fusion [5] | Protection (includes PK rats), percent [3, 6] | Protection (includes PK rats), protected/total [3, 6] | 24-hour Survival (excludes PK rats), percent ([3]; 0.5 mg/kg i.p., rats) | 24-hour Survival (excludes PK rats), survivors/total ([3]; 0.5 mg/kg i.p., rats) | Protection (includes PK rats), percent [3, 7] | Protection (includes PK rats), protected/total [3, 7] | 24-hour Survival (excludes PK rats), percent ([3]; 2 mg/kg i.p., rats) | 24-hour Survival (excludes PK rats), survivors/total ([3]; 2 mg/kg i.p., rats) | Protection (includes PK rats), percent [3, 8] | Protection (includes PK rats), protected/total [3, 8] | 24-hour Survival (excludes PK rats), percent ([3]; 5 mg/kg i.p., rats) | 24-hour Survival (excludes PK rats), survivors/total ([3]; 5 mg/kg i.p., rats) | Protection (includes PK rats), percent [3, 9] | Protection (includes PK rats), protected/total [3, 9] | 24-hour Survival (excludes PK rats), percent ([3]; 10 mg/kg i.p., rats) | 24-hour Survival (excludes PK rats), survivors/total ([3]; 10 mg/kg i.p., rats) | Protection (includes PK rats), percent [3, 10] | Protection (includes PK rats), protected/total [3, 10] | 24-hour Survival (excludes PK rats), percent ([3]; 20 mg/kg i.p., rats) | other results |
| --- | --- | --- | --- | --- | --- | --- | --- | --- | --- | --- | --- | --- | --- | --- | --- | --- | --- | --- | --- | --- | --- |
| Oc1noc2c1CCNC2 [gaboxadol, 4,5,6,7-tetrahydroisoxazolo [5,4-c] pyridine-3-ol] | did not show residual effect | – | – | – | – | – | – | – | – | – | – | – | – | – | – | – | – | – | – | – | Fe ([1]; 2.5 mg single oral dose): 43%; Fe ([1]; 5 mg single oral dose): 45%; Fe ([1]; 10 mg I.V.): 53%; Fe ([1]; 10 mg Oral): 53%; Fe ([1]; 15 mg single oral dose): 50%; Fe ([1]; 20 mg single oral dose): 53%; CL (in CL/F row) ([1]; human, in vivo, iv, 10 mg): 438 mL/min; AUC0-∞ Slope (dose proportionality assessment) ([1]; human, in vivo, po): 0.98; Cmax Slope (dose proportionality assessment) ([1]; human, in vivo, po): 0.95; CL/F ([1]; human, in vivo, po, 2.5 mg): 461 mL/min; CL/F ([1]; human, in vivo, po, 5 mg): 488 mL/min; CL/F ([1]; human, in vivo, po, 10 mg): 476 mL/min; CL/F ([1]; human, in vivo, po, 15 mg): 469 mL/min; CL/F ([1]; human, in vivo, po, 20 mg): 499 mL/min; Effects in sleep onset and sleep maintenance [2]: failed to show significant effects; 24-hour survival, in words ([3]; 10 mg/kg, rats): Significant improvements in 24-hour survival; Dose-response profile of protection, in words ([3]; i.p., p=0.071 at 0.5 mg/kg): Potential for inverted U-response profile; Psychiatric adverse events [4]: steep increase in psychiatric adverse events; Residual effects on other measurements (MSLT, DSST, Tracking, Memory tests, Body Sway, Leeds Sleep Evaluation Questionnaire) [5]: did not show any signs of residual effects |
| CC(=O)[C@H]1CC[C@H]2[C@@H]3CC[C@H]4C[C@](C)(O)CC[C@]4(C)[C@H]3CC[C@]12C [GNX, ganaxolone] | – | (0%) | 0/13 | (60%) | 6/10 | (0%) | 0/13 | (80%) | 8/10 | (0%) | 0/13 | (70%) | 7/10 | (7.7%) | 1/13 | (90%) | 9/10 | (30.8%)* | 4/13 | (90%) | Improvement in protection, in words ([3]; 20 mg/kg i.p., dose-dependent efficacy): significant (p<0.02) improvement in protection; 24-hour Survival (excludes PK rats), survivors/total ([3]; 20 mg/kg i.p., rats): 9/10 |
| CCN(CC)CCN1C(=O)CN=C(c2ccccc2F)c2cc(Cl)ccc21 [Flurazepam, flurazepam] | showed significant effect | – | – | – | – | – | – | – | – | – | – | – | – | – | – | – | – | – | – | – | – |
| CC(=O)[C@H]1CC[C@H]2[C@@H]3CC[C@H]4C[C@H](O)CC[C@]4(C)[C@H]3CC[C@]12C [ALLO, allopregnanolone] | – | (0%) | 0/13 | (60%) | 6/10 | (0%) | 0/13 | (70%) | 7/10 | (0%) | 0/13 | (72%) | 7/9 | (15%) | 2/13 | (90%) | 9/10 | (7.7%) | 1/13 | (90%) | 24-hour Survival (excludes PK rats), survivors/total ([3]; 20 mg/kg i.p., rats): 9/10 |
